# Reference: US20130324522A1, “INSECT ODORANT RECEPTOR ANTAGONISTS” (THE ROCKEFELLER UNIVERSITY, priority 2010, published 2013)
# pIC50: −log10 of the molar value. Where two headings read alike, the source gives them in different places.
# Assays:
# Or47a/Or83b = biological target: T1, Or47a/Or83b (Drosophila melanogaster, UniProt P81921+Q9VNB5); experiment: Ca2+-imaging of stable Flip-In T-Rex cell line Or47a/Or83b; format: cell-based; details: for inhibition at 4 µM: compound applied at 4 μM, read-out: Percent Inhibition OR47a OR83b
# T1 construct: Full-length cDNAs for mosquito (Anopheles gambiae) odorant receptor (OR1, OR2, OR7, OR8, OR28), and fly (Drosophila melanogaster) odorant receptor (Or47a, Or83b); expressed in transfected cells
# T1 sequence (P81921 1-385): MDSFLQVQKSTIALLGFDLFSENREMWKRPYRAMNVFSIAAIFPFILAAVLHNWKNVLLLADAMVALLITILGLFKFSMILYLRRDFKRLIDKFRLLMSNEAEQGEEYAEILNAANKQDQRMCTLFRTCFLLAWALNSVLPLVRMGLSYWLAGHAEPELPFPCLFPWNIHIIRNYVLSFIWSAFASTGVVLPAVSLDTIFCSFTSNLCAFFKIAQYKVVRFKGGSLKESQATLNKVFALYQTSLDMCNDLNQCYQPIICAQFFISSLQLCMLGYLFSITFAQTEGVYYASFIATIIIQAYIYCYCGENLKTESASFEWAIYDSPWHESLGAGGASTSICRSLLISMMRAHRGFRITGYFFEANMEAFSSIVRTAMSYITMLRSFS
# T1 sequence (Q9VNB5 1-486): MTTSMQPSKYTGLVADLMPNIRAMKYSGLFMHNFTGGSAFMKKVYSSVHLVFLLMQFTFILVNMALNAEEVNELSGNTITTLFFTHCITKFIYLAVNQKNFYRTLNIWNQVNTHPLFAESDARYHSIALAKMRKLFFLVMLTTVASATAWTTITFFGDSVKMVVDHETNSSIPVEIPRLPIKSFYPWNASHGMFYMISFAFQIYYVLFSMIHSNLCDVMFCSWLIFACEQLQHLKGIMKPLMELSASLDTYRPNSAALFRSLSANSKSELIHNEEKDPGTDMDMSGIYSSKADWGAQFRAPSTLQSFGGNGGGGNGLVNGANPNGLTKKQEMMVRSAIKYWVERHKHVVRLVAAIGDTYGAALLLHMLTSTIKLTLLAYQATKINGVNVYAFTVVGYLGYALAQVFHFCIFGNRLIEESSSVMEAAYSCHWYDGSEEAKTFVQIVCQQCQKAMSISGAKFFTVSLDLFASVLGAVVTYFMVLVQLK
# Method: (§1) Full-length cDNAs for mosquito (Anopheles gambiae) odorant receptor (OR1, OR2, OR7, OR8, OR28), and fly (Drosophila melanogaster) odorant receptor (Or47a, Or83b), mouse TRP channel (TRPM8), and mouse serotonin receptor (5HT3) were obtained and subcloned into mammalian expression vectors. The following mammalian expression vectors were used:
# (§2) Stable cell lines Or47a/Or83b and 5HT3 were generated from Flip-In T-Rex cells. Flip-In T-Rex-based cell lines were cultured in DMEM supplemented with these additional antibiotics: 6 μg/mL blasticidin and 100 μg/mL hygromycin.
# (§3) Cells were trypsinized and split into 35 mm dishes 1 day before transfection. Confluent cells (60-70%) in 35 mm dishes were co-transfected with 1 μg of Or47a/Or83b plasmid in pcDNA5/FRT/TO/IRES plus the pOG44 plasmid or 1 μg of 5HT3 plasmid in pcDNA5/FRT/TO plus the pOG44 plasmid using lipofectamine 2000. Co-transfection of pOG44 and pcDNA5/FRT/TO/IRES or pcDNA5/FRT/TO allows expression of Flp recombinase and integration of the pcDNA5 plasmid into the genome via the FRT site. After one day of incubation, the transfected cells were transferred into 10 cm dishes with DMEM containing antibiotics: 20 μg/mL of hygromycin and 6 μg/mL of blasticidin. The concentration of Hygromycin was increased to 100 μg/mL when the population of cells became 30-40% confluent. The cells were cultured by changing medium every two days until cell clumps appeared. The clumps were picked and transferred into 96 well plates with DMEM containing 100 μg/mL of Hygromycin and 6 μg/mL of blasticidin. The cells were grown and transferred to 24 well plates, and ligand-evoked calcium increases were tested using the Hamamatsu FDSS6000 real time fluorescence plate reader.
# (§4) Stable cell lines were cultured in 10 cm dishes, and confluent cells (70-80%) were trypsinized. 10,000 cells/20 μL were transferred into each well of 384-well plates coated with poly-D-lysine, and cultured for 2 days. For Flip-In T-Rex cells (cell lines expressing Or47a/Or83b and 5HT3), 5 μL of tetracycline (5 μg/mL) were added 1 day before the assay. 20 μL of Ca-4 dye was loaded into each well for 1.5 hr at room temperature in the dark, and the dye-loaded plates were subjected to Ca^2+-imaging using a Hamamatsu FDSS6000 real time fluorescence plate reader. Odorant solutions (9× final concentration) were prepared by dissolving 1M stock solutions into Hank's Buffered Salt Solution (HBSS), and 30 μL of odor solution was transferred to each well in 384-well plates.
# (§5) Compounds ([…] in DMSO) were stored in 384-well plates, and last two columns (32 wells total) contained only DMSO. 200 nL of small compounds were transferred into the odorant plates before the assay using the Perkin-Elmer Janus workstation. The odorant plates were spun down to remove air bubbles, and placed on the FDSS6000 plate loader, and 5 μL of odorant solution was applied to the cell plate on the FDSS6000. Ca^2+ increase was monitored with fluorescence at 525 nm by excitation at 485 nm.
# [1] = biological target: T2, serotonin receptor (5HT3) (Mus musculus, UniProt P23979); experiment: Ca2+-imaging of stable Flip-In T-Rex cell line 5HT3; format: cell-based; details: for inhibition at 4 µM: compound applied at 4 μM, read-out: Percent Inhibition 5HT3
# T2 construct: Full-length cDNAs for mosquito (Anopheles gambiae) odorant receptor; expressed in transfected cells
# T2 sequence (P23979 24-489): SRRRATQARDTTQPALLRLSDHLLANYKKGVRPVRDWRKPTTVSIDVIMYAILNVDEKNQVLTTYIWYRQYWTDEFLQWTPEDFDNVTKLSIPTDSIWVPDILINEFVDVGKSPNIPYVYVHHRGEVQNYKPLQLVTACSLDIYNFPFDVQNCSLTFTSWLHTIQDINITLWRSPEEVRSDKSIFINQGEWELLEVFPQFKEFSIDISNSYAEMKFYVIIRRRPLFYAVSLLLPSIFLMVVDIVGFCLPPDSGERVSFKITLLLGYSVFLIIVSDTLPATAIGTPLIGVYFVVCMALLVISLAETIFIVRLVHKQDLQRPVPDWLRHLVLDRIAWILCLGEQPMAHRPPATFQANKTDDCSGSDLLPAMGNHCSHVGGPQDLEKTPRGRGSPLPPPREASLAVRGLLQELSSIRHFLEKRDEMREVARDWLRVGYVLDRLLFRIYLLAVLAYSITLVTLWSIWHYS
# Method: as §1, §2, §3, §4, §5
# [2] = ligand pentyl acetate 30 μM, read-out: IC50 OR47a OR83b
# [3] = ligand serotonin 10 μM, read-out: IC50 5HT3
SMILES,inhibition at 4 µM (Or47a/Or83b) [%],inhibition at 4 µM [1] [%],further results
CCN(C)c1onc(-c2ccccc2)c1CN(CCCOC)C(=O)c1ccco1 [RU-0051926],26 to 50,51 to 74,"pIC50 ([1]; Table B, read-out: IC50 5HT3): 6.00 to 7.00"
COc1ccccc1CC(=O)N1CCOC(COc2ccc(C)cc2)C1 (stereo not drawn) [RU-0050390],26 to 50,< 25,
CCN(CC)c1onc(-c2ccccc2)c1CN(CC1CCCO1)C(=O)c1ccco1 (stereo not drawn) [RU-0036855],26 to 50,< 25,
Cc1cc(N(C)C2CCCCC2)nc(SCc2cccc(C(=O)N3CCCC3)c2)n1 [RU-0034108],26 to 50,< 25,"pIC50 (Or47a/Or83b; Table B, read-out: IC50 OR47a): < 6.00"
Cc1ccccc1C(=O)N[C@@H]1CCCCC1NC(=O)C1CCN(C(=O)c2cc(C(F)(F)F)cc(C(F)(F)F)c2)CC1 (stereo partly drawn) [RU-0045778],26 to 50,26 to 50,
CC(C)Nc1nc(Cl)nc(N(C)C(C)C)n1 [RU-T7],,,pIC50 (Or47a/Or83b): < 4.70; pIC50 [1]: < 4.70
O=C(c1cccnc1Cl)N1CCOC(COCc2c(Cl)cccc2Cl)C1 (stereo not drawn) [RU-0050372],26 to 50,< 25,
O=C(c1nccn1Cc1c(F)cccc1Cl)N(CC1CCCC1)C1CC1 [RU-I3],,,"pIC50 (Or47a/Or83b; [2]): > 5.70; pIC50 [1, 3]: 4.70 to 5.70"
C=CCOc1cccc(C(=O)N2CCCC(C(=O)c3ccccc3OC)C2)c1 (stereo not drawn) [RU-0029409],51 to 74,< 25,
CCc1c(C(=O)NCc2cccnc2)cnn1-c1ccccc1 [RU-0048504],26 to 50,< 25,
COc1cccc(NC(=O)CCC2CCN(C(=O)CSc3ccccc3)CC2)c1 [RU-0032474],51 to 74,< 25,"pIC50 (Or47a/Or83b; Table B, read-out: IC50 OR47a): < 6.00"
Cc1cccc(NC(=O)CCC2CCN(C(=O)CCOc3ccccc3)CC2)c1 [RU-0030324],51 to 74,26 to 50,"pIC50 (Or47a/Or83b; Table B, read-out: IC50 OR47a): > 7.00"
COCCN(Cc1c(-c2ccccc2)noc1N(C)C1CCCCC1)C(=O)c1ccccc1OC [RU-0037275],51 to 74,26 to 50,"pIC50 (Or47a/Or83b; Table B, read-out: IC50 OR47a): < 6.00"
COc1ccc(-c2cc(-c3ccccc3)n(C(=O)CN3CCN(Cc4ccccc4)CC3)n2)cc1 [RU-0038795],51 to 74,51 to 74,"pIC50 (Or47a/Or83b; Table B, read-out: IC50 OR47a): < 6.00; pIC50 ([1]; Table B, read-out: IC50 5HT3): < 6.00"
O=C(C1CCCC1)N(Cc1nccn1CCc1c(F)cccc1Cl)C1CC1 [RU-I2],,,"pIC50 (Or47a/Or83b; [2]): > 5.70; pIC50 [1, 3]: 4.70 to 5.70"
O=C(c1ccco1)N(Cc1ccco1)Cc1nccn1Cc1ccccc1F [RU-0047694],26 to 50,26 to 50,
CCOC(=O)CCC(=O)N(CCc1ccccc1)CC(=O)Nc1cc(C(C)(C)C)nn1-c1ccccc1C [RU-0072462],26 to 50,< 25,
CCCCCCCC(=O)N1CCCC(C(=O)NC2CCCC[C@H]2NC(=O)c2ccccc2C)C1 (stereo partly drawn) [RU-0045756],26 to 50,< 25,
C=CCN(Cc1nccn1Cc1ccc(Cl)c(Cl)c1)C(=O)c1ccccc1F [RU-0047955],26 to 50,< 25,
